Values of other authors in patent publication US10058543B2, “Treatment of familial exudative vitreoretinopathy through S1PR2 inhibition” (DALHOUSIE UNIVERSITY, priority 2014, dated 2018).
Entries after “also recorded” stand apart in the source; their conditions may differ.

What was measured:
[1] = biological target: S1PR2 (Homo sapiens, UniProt O95136)
[2] = test system: VEGF; settings: ocular injection, FEVR patient, one study
Sequence of VEGF (P15692 207-311 limits assumed): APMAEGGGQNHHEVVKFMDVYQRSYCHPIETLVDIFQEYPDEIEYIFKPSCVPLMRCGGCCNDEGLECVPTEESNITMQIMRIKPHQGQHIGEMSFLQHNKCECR

Sequence of S1PR2 (O95136 whole entry): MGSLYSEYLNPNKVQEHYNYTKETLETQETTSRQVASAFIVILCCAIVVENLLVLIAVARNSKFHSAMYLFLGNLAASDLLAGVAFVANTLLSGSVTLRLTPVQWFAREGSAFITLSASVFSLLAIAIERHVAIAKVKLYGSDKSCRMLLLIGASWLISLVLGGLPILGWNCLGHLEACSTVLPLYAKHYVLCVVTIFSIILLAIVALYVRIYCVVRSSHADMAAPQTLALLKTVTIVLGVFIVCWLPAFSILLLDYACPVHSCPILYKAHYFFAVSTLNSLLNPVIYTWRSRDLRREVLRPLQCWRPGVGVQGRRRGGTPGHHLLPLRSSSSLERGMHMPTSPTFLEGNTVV

Molecule | specificity for S1PR2 versus other S1PRs [1] | affinity ([1]; S1PR2, stated in words) | specificity for S1PR2 ([1]; stated in words) | retinal hemorrhage and neovascularization [2]
Cc1nn(C)c2nc(NNC(=O)Nc3cc(Cl)nc(Cl)c3)cc(C(C)C)c12 [JTE-103, 1-(2,6-dichloro-4-pyridyl)-3-[(4-isopropyl-1,3-dimethyl-pyrazolo[3,4-n]pyridin-6-yl)amino]urea] | 10 fold | uM affinity; also recorded: low affinity | some specificity for S1PR2 | –
bevacizumab: monoclonal antibody that inhibits VEGF function originally developed to treat cancers | – | – | – | improvement of retinal hemorrhage and neovascularization
